These results are taken from ChEMBL document CHEMBL5465560, “Selectivity Literature for EUbOPEN Chemogenomic Library” (2024).

Molecules are shown by their SMILES.

Test [1] has as its target T1, Inhibitor of nuclear factor kappa-B kinase subunit alpha (Homo sapiens) (UniProt O15111).
T1 sequence (whole entry): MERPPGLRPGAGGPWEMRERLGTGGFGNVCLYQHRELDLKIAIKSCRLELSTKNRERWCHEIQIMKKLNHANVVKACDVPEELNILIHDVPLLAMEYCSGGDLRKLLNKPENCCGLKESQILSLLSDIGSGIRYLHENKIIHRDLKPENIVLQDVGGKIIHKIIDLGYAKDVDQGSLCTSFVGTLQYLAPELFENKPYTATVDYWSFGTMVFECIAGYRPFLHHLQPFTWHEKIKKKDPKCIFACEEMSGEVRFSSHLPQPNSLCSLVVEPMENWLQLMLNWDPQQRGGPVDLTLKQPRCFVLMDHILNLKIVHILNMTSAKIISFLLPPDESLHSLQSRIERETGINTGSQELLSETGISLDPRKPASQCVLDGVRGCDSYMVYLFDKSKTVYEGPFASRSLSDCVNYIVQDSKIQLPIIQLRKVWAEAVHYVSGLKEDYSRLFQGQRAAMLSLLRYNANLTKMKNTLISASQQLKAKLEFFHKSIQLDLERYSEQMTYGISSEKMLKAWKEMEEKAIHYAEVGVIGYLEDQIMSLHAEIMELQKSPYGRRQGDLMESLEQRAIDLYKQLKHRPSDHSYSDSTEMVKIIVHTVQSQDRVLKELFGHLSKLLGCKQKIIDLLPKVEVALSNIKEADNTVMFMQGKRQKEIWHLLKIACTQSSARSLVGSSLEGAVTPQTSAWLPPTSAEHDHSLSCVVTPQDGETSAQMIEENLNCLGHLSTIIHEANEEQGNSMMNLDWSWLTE
Kind of test: Selectivity interaction (Kinase panel (KiNativ target engagement assay in Jurkat cells)) EUB0001635a CHUK. The class given is cell-based. The following applies: Selectivity number of off-targets 0.0, Selectivity number of targets 233.0, Source Knowledge https://www.sciencedirect.com/science/article/pii/S2451945619300674?via%3Dihub, at 1 µM.

The target in test [2] is T2, Serine/threonine-protein kinase DCLK2 (Homo sapiens) (UniProt Q8N568).
T2 sequence (whole entry): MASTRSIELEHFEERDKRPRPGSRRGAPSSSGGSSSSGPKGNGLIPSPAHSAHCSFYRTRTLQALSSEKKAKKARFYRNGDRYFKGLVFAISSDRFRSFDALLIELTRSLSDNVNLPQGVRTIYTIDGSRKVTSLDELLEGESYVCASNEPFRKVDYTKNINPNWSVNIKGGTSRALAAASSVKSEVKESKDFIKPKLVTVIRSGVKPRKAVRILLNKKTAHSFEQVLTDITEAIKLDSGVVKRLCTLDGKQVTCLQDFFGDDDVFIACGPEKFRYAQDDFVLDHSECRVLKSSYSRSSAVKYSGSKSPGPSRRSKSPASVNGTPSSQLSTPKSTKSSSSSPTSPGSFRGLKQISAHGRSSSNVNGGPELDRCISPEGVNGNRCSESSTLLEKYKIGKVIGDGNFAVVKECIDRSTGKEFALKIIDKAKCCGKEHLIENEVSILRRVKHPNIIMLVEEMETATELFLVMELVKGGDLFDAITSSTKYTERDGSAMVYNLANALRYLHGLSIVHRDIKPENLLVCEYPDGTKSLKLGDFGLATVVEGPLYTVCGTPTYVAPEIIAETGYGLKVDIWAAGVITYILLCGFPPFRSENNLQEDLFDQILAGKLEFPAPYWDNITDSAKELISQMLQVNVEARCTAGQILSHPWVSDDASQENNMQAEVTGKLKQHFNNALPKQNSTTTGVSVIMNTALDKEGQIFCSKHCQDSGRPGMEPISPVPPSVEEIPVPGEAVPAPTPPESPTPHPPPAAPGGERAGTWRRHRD
Kind of test: Selectivity interaction (KinomeScan (DiscoverX)) EUB0000607a DCLK2. The following applies: at 10 µM.

The target of test [3] is T3, Rhodopsin kinase GRK1 (Homo sapiens) (UniProt Q15835).
T3 sequence (whole entry): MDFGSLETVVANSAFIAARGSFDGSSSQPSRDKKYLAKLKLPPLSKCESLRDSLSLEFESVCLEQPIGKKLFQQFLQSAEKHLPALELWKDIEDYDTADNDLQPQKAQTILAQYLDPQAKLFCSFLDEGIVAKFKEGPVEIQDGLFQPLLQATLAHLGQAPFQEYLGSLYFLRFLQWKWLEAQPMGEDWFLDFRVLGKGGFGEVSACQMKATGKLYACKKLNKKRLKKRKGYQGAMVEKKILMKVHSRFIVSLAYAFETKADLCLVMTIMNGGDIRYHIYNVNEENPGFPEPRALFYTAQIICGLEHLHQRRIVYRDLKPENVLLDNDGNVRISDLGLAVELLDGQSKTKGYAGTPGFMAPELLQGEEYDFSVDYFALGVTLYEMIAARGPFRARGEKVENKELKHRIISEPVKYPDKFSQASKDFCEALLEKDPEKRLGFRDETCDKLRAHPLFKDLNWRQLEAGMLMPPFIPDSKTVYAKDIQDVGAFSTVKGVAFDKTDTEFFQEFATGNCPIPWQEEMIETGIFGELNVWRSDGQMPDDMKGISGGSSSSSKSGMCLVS
Kind of test: Selectivity interaction (KinomeScan (DiscoverX)) EUB0000607a GRK1. The following applies: at 10 µM.

The target of test [4] is Ribosomal protein S6 kinase alpha-6 (Homo sapiens, UniProt Q9UK32). Kind of test: Selectivity interaction (SelectScreen profiling (Invitrogen)) EUB0000607a RPS6KA6. The following applies: at 2 µM.
Sequence of Ribosomal protein S6 kinase alpha-6 (Q9UK32 whole entry): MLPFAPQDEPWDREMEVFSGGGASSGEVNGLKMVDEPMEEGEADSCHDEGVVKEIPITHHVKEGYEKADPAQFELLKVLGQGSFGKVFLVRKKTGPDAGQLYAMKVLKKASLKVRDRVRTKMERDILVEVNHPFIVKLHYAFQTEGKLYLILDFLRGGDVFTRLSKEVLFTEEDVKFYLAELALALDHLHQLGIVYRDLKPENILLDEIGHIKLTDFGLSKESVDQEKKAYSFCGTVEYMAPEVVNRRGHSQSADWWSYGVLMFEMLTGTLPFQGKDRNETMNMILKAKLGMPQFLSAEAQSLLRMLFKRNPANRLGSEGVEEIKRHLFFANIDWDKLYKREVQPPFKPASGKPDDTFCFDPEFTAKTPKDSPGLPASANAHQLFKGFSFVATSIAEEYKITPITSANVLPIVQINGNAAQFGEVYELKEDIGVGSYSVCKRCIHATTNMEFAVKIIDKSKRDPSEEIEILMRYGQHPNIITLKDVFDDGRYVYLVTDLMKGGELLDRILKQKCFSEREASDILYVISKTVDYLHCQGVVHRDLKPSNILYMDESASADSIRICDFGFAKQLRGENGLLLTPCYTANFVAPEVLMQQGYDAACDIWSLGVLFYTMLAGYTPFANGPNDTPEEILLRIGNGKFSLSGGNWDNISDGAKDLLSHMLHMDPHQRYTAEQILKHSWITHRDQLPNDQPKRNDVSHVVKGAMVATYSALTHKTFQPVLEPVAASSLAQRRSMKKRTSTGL
Test [5] concerns the target Tyrosine-protein kinase receptor Tie-1 (Homo sapiens) (UniProt P35590). The conditions noted are these: at 10 µM.
The test system of test [6] is Tyrosine-protein kinase ABL1 (Homo sapiens), P00519 [E255K]. Kind of test: (§1) Selectivity interaction (KinomeScan (DiscoverX)) EUB0000666a ABL1. The conditions noted are these: at 10 µM.
In test [7] the test system is Tyrosine-protein kinase ABL1 (Homo sapiens), P00519 [F317I]. The test is described as §1. The following applies: at 10 µM.
Test [8] deals with Tyrosine-protein kinase ABL1 (Homo sapiens), P00519 [F317L]. Described as §1. The conditions noted are these: at 10 µM.
Test [9] concerns Tyrosine-protein kinase ABL1 (Homo sapiens), P00519 [H396P]. Described as §1. The following applies: at 10 µM.
Test [10] relates to Tyrosine-protein kinase ABL1 (Homo sapiens), P00519 [Q252H]. Described as §1. The conditions noted are these: at 10 µM.
For test [11], the system named is Tyrosine-protein kinase ABL1 (Homo sapiens), P00519 [T315I]. The test is described as §1. The following applies: at 10 µM.
For test [12], the target named is Tyrosine-protein kinase ABL1 (Homo sapiens, UniProt P00519). The description is as §1. The conditions noted are these: at 10 µM.
Test [13] has as its target Leukocyte tyrosine kinase receptor (Homo sapiens, UniProt P29376). Kind of test: Selectivity interaction (KinomeScan (DiscoverX)) EUB0000655a LTK. The conditions noted are these: at 10 µM.
Test [14] addresses Ribosomal protein S6 kinase beta-1 (Homo sapiens, UniProt P23443). Kind of test: Selectivity interaction (Kinase panel (Invitrogen)) EUB0000639a RPS6KB1. The conditions noted are these: at 200 nM.
Test [15] concerns the target Mitogen-activated protein kinase kinase kinase kinase 5 (Homo sapiens) (UniProt Q9Y4K4). Kind of test: Selectivity interaction (KinomeScan (DiscoverX)) EUB0000695a MAP4K5. The following applies: at 100 nM.
Test [16] has as its target Tyrosine-protein kinase CSK (Homo sapiens) (UniProt P41240). The following applies: at 10 µM.

Sequence of Ribosomal protein S6 kinase beta-1 (P23443 whole entry, looked up): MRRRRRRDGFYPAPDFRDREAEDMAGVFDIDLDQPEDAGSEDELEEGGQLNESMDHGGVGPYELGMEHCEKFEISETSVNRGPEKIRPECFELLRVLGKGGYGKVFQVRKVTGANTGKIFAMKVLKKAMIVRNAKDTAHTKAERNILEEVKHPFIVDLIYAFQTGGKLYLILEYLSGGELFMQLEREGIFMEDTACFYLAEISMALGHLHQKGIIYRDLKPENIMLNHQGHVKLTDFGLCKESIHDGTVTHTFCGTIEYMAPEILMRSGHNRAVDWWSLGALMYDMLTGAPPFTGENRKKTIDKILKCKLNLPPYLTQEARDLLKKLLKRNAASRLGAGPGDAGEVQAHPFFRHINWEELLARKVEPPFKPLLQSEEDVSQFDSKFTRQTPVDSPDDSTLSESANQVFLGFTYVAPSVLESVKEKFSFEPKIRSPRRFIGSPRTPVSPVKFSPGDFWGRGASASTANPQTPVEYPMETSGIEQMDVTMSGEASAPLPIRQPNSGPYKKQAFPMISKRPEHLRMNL
Sequence of Mitogen-activated protein kinase kinase kinase kinase 5 (Homo sapiens) (Q9Y4K4 whole entry, looked up): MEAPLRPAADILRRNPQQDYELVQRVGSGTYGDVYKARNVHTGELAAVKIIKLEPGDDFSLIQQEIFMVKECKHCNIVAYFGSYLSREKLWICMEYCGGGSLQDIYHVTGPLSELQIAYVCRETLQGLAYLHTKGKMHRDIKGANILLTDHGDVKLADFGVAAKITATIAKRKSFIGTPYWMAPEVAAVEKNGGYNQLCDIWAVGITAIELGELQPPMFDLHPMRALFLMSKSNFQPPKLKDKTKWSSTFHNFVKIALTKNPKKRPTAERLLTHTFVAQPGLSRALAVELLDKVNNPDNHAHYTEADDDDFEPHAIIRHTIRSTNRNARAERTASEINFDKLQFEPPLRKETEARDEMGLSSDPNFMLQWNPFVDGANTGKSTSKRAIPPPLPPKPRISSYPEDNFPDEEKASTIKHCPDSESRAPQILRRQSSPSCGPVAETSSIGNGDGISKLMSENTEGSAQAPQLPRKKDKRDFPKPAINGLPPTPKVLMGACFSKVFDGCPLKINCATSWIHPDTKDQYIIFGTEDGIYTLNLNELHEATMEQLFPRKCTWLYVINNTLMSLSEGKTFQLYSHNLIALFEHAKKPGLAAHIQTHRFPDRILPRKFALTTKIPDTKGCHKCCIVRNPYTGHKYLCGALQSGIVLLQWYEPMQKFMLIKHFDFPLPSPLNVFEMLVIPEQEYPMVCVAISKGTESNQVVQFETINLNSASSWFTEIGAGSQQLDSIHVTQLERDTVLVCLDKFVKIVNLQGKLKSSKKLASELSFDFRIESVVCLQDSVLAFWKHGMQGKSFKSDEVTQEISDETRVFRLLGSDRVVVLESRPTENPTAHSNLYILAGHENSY
Sequence of Tyrosine-protein kinase receptor Tie-1 (Homo sapiens) (P35590 whole entry): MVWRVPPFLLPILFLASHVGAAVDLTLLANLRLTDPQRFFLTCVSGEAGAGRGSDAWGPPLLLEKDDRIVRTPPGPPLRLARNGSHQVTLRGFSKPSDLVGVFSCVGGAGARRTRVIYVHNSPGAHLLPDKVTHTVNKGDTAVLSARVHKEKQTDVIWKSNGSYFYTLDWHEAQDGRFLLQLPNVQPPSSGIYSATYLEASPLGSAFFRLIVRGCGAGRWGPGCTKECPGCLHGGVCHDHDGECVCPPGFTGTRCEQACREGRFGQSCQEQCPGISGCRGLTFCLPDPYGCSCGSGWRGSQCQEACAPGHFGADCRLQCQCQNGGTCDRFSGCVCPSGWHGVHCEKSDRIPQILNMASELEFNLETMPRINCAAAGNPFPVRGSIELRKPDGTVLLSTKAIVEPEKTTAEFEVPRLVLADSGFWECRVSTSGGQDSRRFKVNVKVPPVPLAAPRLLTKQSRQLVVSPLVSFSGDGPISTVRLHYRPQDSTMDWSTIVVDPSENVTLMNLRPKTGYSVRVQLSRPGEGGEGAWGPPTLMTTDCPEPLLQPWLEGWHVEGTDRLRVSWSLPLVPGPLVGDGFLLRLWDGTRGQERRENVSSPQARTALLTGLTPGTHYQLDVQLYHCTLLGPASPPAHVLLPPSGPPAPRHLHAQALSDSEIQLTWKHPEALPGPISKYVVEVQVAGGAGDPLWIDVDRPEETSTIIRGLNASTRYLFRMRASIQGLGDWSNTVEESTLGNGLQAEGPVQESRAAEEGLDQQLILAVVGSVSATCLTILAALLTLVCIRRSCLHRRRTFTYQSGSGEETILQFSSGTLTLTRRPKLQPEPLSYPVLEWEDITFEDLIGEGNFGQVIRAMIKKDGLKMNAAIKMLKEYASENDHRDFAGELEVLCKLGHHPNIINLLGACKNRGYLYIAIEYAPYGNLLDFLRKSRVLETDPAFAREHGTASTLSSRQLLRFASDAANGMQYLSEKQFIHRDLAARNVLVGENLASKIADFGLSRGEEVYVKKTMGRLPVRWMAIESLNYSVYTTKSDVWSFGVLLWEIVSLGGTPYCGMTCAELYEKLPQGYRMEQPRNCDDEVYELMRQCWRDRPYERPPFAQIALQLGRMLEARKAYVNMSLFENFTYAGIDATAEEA
Sequence of Leukocyte tyrosine kinase receptor (P29376 whole entry): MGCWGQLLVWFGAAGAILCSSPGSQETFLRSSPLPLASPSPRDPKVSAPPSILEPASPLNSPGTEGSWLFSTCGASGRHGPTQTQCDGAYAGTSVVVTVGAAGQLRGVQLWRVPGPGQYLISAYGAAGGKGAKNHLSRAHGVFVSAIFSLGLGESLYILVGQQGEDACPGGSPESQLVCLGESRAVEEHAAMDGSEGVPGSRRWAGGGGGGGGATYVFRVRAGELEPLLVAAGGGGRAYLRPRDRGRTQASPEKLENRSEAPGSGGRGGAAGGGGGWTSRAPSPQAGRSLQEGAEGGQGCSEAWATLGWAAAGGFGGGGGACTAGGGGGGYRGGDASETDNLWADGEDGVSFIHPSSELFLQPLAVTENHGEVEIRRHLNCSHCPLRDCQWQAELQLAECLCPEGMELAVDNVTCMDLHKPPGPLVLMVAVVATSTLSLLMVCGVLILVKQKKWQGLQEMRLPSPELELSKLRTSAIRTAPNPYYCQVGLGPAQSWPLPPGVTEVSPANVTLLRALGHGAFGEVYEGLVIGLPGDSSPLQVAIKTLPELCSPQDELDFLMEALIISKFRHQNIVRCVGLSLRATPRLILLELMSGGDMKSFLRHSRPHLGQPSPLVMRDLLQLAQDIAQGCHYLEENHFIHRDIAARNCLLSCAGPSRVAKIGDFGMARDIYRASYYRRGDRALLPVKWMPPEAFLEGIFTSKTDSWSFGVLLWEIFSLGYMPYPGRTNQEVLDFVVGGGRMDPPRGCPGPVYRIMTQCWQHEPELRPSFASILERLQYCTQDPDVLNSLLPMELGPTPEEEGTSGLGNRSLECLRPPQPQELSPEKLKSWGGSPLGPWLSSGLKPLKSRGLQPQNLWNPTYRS
Sequence of Tyrosine-protein kinase CSK (Homo sapiens) (P41240 2-450 limits assumed): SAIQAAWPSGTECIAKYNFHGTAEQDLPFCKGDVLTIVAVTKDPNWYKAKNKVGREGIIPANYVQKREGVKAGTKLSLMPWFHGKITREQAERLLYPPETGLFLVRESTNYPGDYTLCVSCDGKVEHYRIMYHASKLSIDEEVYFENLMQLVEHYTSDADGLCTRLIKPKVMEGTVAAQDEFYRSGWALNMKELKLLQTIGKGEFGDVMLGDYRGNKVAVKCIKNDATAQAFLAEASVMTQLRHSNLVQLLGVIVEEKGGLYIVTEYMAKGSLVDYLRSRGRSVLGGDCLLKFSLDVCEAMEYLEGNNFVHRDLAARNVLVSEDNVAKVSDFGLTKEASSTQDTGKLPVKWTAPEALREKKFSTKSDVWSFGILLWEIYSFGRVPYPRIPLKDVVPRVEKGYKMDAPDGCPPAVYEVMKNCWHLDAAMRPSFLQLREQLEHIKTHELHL

Take `C=CC(=O)Nc1ccc(C(=O)Nc2[nH]nc3c2CN(C(=O)N[C@H](CN(C)C)c2ccccc2)C3(C)C)cc1`: the % of engagement in test [1] was -7.3%.

For `CNC(=O)Nc1ccc(-c2nc(N3CC4CCC(C3)O4)c3cnn(C4CCC5(CC4)OCCO5)c3n2)cc1`, the % of control in test [2] stood at 97%; in [3], 100%. This compound yielded a % of inhibition in test [4] of 12%.

As to `Cc1cc([C@@H](C)Nc2ccccc2C(=O)O)c2nc(N3CCOCC3)cc(=O)n2c1` [AZD-6482], the % of control in test [5] was 100%.

As for `O=C(NOC[C@H](O)CO)c1ccc(F)c(F)c1Nc1ccc(I)cc1F`, the % of control in test [6] turned out to be 100%; in test [7], 100%; in test [8], 100%; in [9], 100%; in test [10], 100%; in test [11] it was 82%. Moreover, the % of control in [12] is 77%.

For `CN(C)CCOc1ccc(-c2nc(-c3ccncc3)c(-c3ccc4c(c3)CC/C4=N\O)[nH]2)cc1`, in [13], the % of control is 67%.

`CC[C@@H]1[C@H](F)C(=O)N[C@@H]1COc1nccc2cc(C(N)=O)c(OC)cc12` [ZIMLOVISERTIB] showed a % of inhibition in [14] of 17.4%.

Take `Cc1cc(F)c(C(=O)Nc2cccc(-c3nncn3C(C)C)n2)cc1-n1cnc(C2CC2)c1`: in test [15], the % of control amounted to 100%.

`COCC(=O)NC/C=C/c1ccc2ncnc(Nc3ccc(Oc4ccc(C)nc4)c(C)c3)c2c1` [CP-724714] displayed a % of control in test [16] of 59%.
